The values that follow come from patent US9809573B2, “Substituted pyridine derivatives useful as GSK-3 inhibitors” (priority 2013, dated 2017).

Like-named read-outs stand apart in the source and are kept apart here.

For one test, the target named is GSK3β (Homo sapiens, UniProt P49841). Briefly: GSK3β kinase assay (Caliper LabChip3000, fluoresceinated peptide substrate). The format is biochemical. Summed up:
(§1)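 Kinase reactions ran at room temperature for 20 hours, then were stopped with EDTA. Phosphorylated product and unphosphorylated substrate were separated electrophoretically on a LabChip3000, and IC50s came from non-linear regression over eleven compound concentrations.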

A further test concerns the target GSK3α (Homo sapiens, UniProt P49840). Briefly: biochemical. Put shortly:
as §1

A further test relates to pTau. Briefly: pTau assay (method not described). The format is cell-based.
The mark [1] stands for this setting: first value of the cell, 250 pM enzyme, 20 uM ATP, 20 hours at room temperature, read-out: GSK3β/α (nM): GSK3β IC50.
Setting [2] is: second value of the cell, 250 pM enzyme, 20 uM ATP, 20 hours at room temperature, read-out: GSK3β/α (nM): GSK3α IC50.

Sequence of GSK3α (P49840 whole entry, species assumed): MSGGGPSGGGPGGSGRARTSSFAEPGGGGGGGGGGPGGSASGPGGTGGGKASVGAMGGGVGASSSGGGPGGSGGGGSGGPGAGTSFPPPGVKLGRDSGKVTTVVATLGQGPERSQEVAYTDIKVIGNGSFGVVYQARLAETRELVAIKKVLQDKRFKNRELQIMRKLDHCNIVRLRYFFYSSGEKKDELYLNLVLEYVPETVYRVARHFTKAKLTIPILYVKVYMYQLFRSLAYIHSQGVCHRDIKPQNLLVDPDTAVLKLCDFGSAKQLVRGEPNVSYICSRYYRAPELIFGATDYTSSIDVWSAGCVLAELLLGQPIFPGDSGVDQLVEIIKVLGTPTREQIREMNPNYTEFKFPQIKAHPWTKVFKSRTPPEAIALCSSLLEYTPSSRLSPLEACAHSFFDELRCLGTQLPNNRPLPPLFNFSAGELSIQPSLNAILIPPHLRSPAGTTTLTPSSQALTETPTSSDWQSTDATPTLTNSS
Sequence of GSK3β (P49841 whole entry, species assumed): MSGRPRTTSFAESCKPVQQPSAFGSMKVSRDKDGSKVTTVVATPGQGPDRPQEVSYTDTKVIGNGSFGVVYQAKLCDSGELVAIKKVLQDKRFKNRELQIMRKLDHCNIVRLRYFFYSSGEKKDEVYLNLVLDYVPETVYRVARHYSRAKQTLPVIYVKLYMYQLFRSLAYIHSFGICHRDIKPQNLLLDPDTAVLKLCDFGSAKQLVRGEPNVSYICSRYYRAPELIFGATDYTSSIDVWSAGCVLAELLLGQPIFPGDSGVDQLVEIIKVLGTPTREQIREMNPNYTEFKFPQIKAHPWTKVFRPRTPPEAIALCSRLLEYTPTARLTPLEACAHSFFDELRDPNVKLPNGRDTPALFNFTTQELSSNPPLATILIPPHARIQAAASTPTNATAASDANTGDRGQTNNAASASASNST

Take `CC(C)C(=O)Nc1cc(C(=O)Nc2cncc(C(O)c3ccccc3)c2)ccn1` (stereo not drawn) [Example 197, N-(5-(hydroxy(phenyl)methyl)pyridin-3-yl)-2-isobutyramidoisonicotinamide]: the IC50 on GSK3β (setting [1]) is 19 nM; on GSK3α (setting [2]), 12 nM; in the test on pTau (read-out: pTau), 320 nM.
With `O=C(Nc1cncc(-c2ccncc2)c1)c1ccnc(NC(=O)C2CC2)c1` [Example 106, N-([3,4′-bipyridin]-5-yl)-2-(cyclopropanecarboxamido)isonicotinamide], the IC50 was determined as 4.8 nM on GSK3β, 2.5 nM at GSK3α (setting [2]) and 320 nM in the test on pTau (read-out: pTau).
`O=C(Nc1cnccc1-c1ccccc1)c1ccnc(NC(=O)C2CCCC2)c1` [Example 227, 2-(Cyclopentanecarboxamido)-N-(4-phenylpyridin-3-yl)isonicotinamide]: the figures for the IC50 against GSK3β, on GSK3α and in the test on pTau (read-out: pTau (nM)) were 1.6 nM, 1.4 nM and 47 nM, respectively.
In the case of `CC(C)C(=O)Nc1cc(C(=O)Nc2cnccc2OCC(F)(F)F)ccn1` [Example 203, 2-Isobutyramido-N-(4-(2,2,2-trifluoroethoxy)pyridin-3-yl)isonicotinamide], the figures for the IC50 against GSK3β, at GSK3α (setting [2]) and with pTau (read-out: pTau) were 0.72 nM, 0.35 nM and 70 nM, respectively.
Turning to `CC(C)C(=O)Nc1cc(C(=O)Nc2cnccc2C(F)(F)c2ccccc2)ccn1` [Example 198, N-(4-(difluoro(phenyl)methyl)pyridin-3-yl)-2-isobutyramidoisonicotinamide], the IC50 at GSK3β (setting [1]) was 390 nM; on GSK3α (setting [2]) it was 230 nM; in the test with pTau (read-out: pTau), 9900 nM.
In the case of `CN(C)C(=O)c1ccc(-c2ccncc2NC(=O)c2ccnc(NC(=O)C3CC3)c2)c(F)c1` [Example 92, 2-(Cyclopropanecarboxamido)-N-(4-(4-(dimethylcarbamoyl)-2-fluorophenyl)pyridin-3-yl)isonicotinamide], the IC50 came out at 24 nM at GSK3β (setting [1]), 11 nM on GSK3α (setting [2]) and 460 nM in the test on pTau (read-out: pTau).
For the compound `O=C(Nc1cncc(F)c1)c1ccnc(NC(=O)C2CC2)c1` [Example 12, 2-(Cyclopropanecarboxamido)-N-(5-fluoropyridin-3-yl)isonicotinamide], the IC50 on GSK3β (setting [1]) amounted to 33 nM; at GSK3α (setting [2]), 16 nM; in the test with pTau (read-out: pTau), 1400 nM.
On to `CCCc1ccc(-c2ccncc2NC(=O)c2ccnc(NC(=O)C3CC3)c2)cc1` [Example 72, 2-(Cyclopropanecarboxamido)-N-(4-(4-propylphenyl)pyridin-3-yl)isonicotinamide], for which the IC50 on GSK3β (setting [1]) came to 3.1 nM; at GSK3α (setting [2]), 6.4 nM; in the test with pTau (read-out: pTau) it was 250 nM.
Take `O=C(Nc1cncc2ccccc12)c1ccnc(NC(=O)C2CC2)c1` [Example 6, 2-(Cyclopropanecarboxamido)-N-(isoquinolin-4-yl)isonicotinamide]: the IC50 turned out to be 7.2 nM on GSK3β (setting [1]), 2.7 nM at GSK3α (setting [2]) and 190 nM in the test with pTau (read-out: pTau).
`O=C(Nc1cnccc1-c1ccc(C(F)(F)F)cc1Cl)c1ccnc(NC(=O)C2CC2)c1` [Example 70, N-(4-(2-chloro-4-(trifluoromethyl)phenyl)pyridin-3-yl)-2-(cyclopropanecarboxamido)isonicotinamide]: the values for the IC50 at GSK3β (setting [1]), on GSK3α (setting [2]) and with pTau (read-out: pTau) were 7 nM, 4.5 nM and 280 nM, respectively.
For `O=C(Nc1cnccc1N1CCCCC1)c1ccnc(NC(=O)C2CC2)c1` [Example 50, 2-(Cyclopropanecarboxamido)-N-(4-(piperidin-1-yl)pyridin-3-yl)isonicotinamide], the IC50 is 0.99 nM on GSK3β, 0.35 nM on GSK3α (setting [2]) and 23 nM in the test with pTau (read-out: pTau).
In the case of `O=C(Nc1cnccc1-c1ccccc1)c1ccnc(NC(=O)C2CC2(F)F)c1` (stereo not drawn) [Example 98, 2-(2,2-Difluorocyclopropanecarboxamido)-N-(4-phenylpyridin-3-yl)isonicotinamide], the results for the IC50 at GSK3β (setting [1]), at GSK3α (setting [2]) and in the test with pTau (read-out: pTau) were 11 nM, 17 nM and 1400 nM, respectively.
`O=C(Nc1cncc(Cc2ccccc2)c1)c1ccnc(NC(=O)C2CC2)c1` [Example 110, N-(5-benzylpyridin-3-yl)-2-(cyclopropanecarboxamido)isonicotinamide]: the values for the IC50 on GSK3β (setting [1]), on GSK3α (setting [2]) and in the test on pTau (read-out: pTau) were 73 nM, 11 nM and 5600 nM, respectively.
Turning to `CC1CC1C(=O)Nc1cc(C(=O)Nc2cnccc2-c2ccccc2)ccn1` (stereo not drawn) [Example 100, 2-(2-Methylcyclopropanecarboxamido)-N-(4-phenylpyridin-3-yl)isonicotinamide], the IC50 at GSK3β (setting [1]) was found to be 26 nM; at GSK3α (setting [2]) it was 7.5 nM; in the test on pTau (read-out: pTau), 350 nM.
For `O=C(Nc1cnccc1N1CCCCCC1)c1ccnc(NC(=O)C2CC2)c1` [Example 53, N-(4-(azepan-1-yl)pyridin-3-yl)-2-(cyclopropanecarboxamido)isonicotinamide], the figures for the IC50 at GSK3β (setting [1]), at GSK3α (setting [2]) and in the test with pTau (read-out: pTau) were 37 nM, 14 nM and 1200 nM, respectively.
For the compound `O=C(Nc1cnccc1-c1ccc(C(F)(F)F)cc1)c1ccnc(NC(=O)C2CC2)c1` [Example 56, 2-(Cyclopropanecarboxamido)-N-(4-(4-(trifluoromethyl)phenyl)pyridin-3-yl)isonicotinamide], the values for the IC50 at GSK3β (setting [1]), on GSK3α (setting [2]) and in the test on pTau (read-out: pTau) were 13 nM, 8.4 nM and 230 nM, respectively.
In the case of `C=C(c1ccccc1)c1ccncc1NC(=O)c1ccnc(NC(=O)C(C)C)c1` [Example 200, 2-Isobutyramido-N-(4-(1-phenylvinyl)pyridine-3-yl)isonicotinamide], the IC50 on GSK3β (setting [1]) was found to be 6.1 nM; on GSK3α (setting [2]), 4.7 nM; in the test with pTau (read-out: pTau) it was 510 nM.
As to `N#Cc1ccc(-c2ccncc2NC(=O)c2ccnc(NC(=O)C3CC3)c2)c(F)c1` [Example 85, N-(4-(4-cyano-2-fluorophenyl)pyridin-3-yl)-2-(cyclopropanecarboxamido)isonicotinamide], the IC50 at GSK3β (setting [1]) worked out at 2.9 nM; at GSK3α (setting [2]) it was 0.94 nM; in the test with pTau (read-out: pTau), 33 nM.
For `O=C(Nc1cncc(-c2ccnc(F)c2F)c1)c1ccnc(NC(=O)C2CC2)c1` [Example 166, 2-(cyclopropanecarboxamido)-N-(2′,3′-difluoro-[3,4′-bipyridin]-5-yl)isonicotinamide], the IC50 worked out at 44 nM at GSK3β (setting [1]), 11 nM at GSK3α (setting [2]) and 360 nM in the test on pTau (read-out: pTau).
For the compound `O=C(Nc1cncc(C2CCC2)c1)c1ccnc(NC(=O)C2CC2)c1` [Example 113, N-(5-cyclobutylpyridin-3-yl)-2-(cyclopropanecarboxamido)isonicotinamide], the IC50 at GSK3β amounted to 1 nM; at GSK3α (setting [2]), 1.75 nM; in the test on pTau (read-out: pTau), 330 nM.
On to `O=C(Nc1cncc(C2CC2)c1)c1ccnc(NC(=O)C2CC2)c1` [Example 22, 2-(Cyclopropanecarboxamido)-N-(5-cyclopropylpyridin-3-yl)isonicotinamide], for which the IC50 on GSK3β (setting [1]) is 7.1 nM; at GSK3α (setting [2]), 2.4 nM; in the test on pTau (read-out: pTau), 250 nM.
Turning to `O=C(Nc1cncc(-c2ccccc2)c1)c1ccnc(NC(=O)C2CC2)c1` [Example 104, 2-(cyclopropanecarboxamido)-N-(5-phenylpyridin-3-yl)isonicotinamide], the IC50 at GSK3β came to 5 nM; against GSK3α, 2 nM; in the test on pTau (read-out: pTau (nM)), 270 nM.
With `O=C(Nc1cncc(-c2ccc(F)nc2)c1)c1ccnc(NC(=O)C2CC2)c1` [Example 163, 2-(cyclopropanecarboxamido)-N-(6′-fluoro-[3,3′-bipyridin]-5-yl)isonicotinamide], the IC50 at GSK3β (setting [1]) was determined as 6 nM; on GSK3α (setting [2]), 1.7 nM; with pTau (read-out: pTau), 130 nM.
For `CC1(C)CC(C(=O)Nc2cc(C(=O)Nc3cnccc3-c3ccccc3)ccn2)C1` [Example 217, 2-(3,3-Dimethylcyclobutanecarboxamido)-N-(4-phenylpyridin-3-yl)isonicotinamide], the IC50 on GSK3β is 1.7 nM; at GSK3α (setting [2]) it was 3.2 nM; in the test on pTau (read-out: pTau) it was 170 nM.
For the compound `O=C(Nc1cncc(-c2ccc(OC(F)(F)F)cc2)c1)c1ccnc(NC(=O)C2CC2)c1` [Example 120, 2-(cyclopropanecarboxamido)-N-(5-(4-(trifluoromethoxy)phenyl)pyridin-3-yl)isonicotinamide], the results for the IC50 at GSK3β (setting [1]), at GSK3α (setting [2]) and in the test with pTau (read-out: pTau) were 11 nM, 8 nM and 5400 nM, respectively.
Turning to `Cc1cc(NC(=O)c2ccnc(NC(=O)C3CC3)c2)cnc1F` [Example 8, 2-(Cyclopropanecarboxamido)-N-(6-fluoro-5-methylpyridin-3-yl)isonicotinamide], the IC50 at GSK3β (setting [1]) came to 48 nM; on GSK3α (setting [2]) it was 24 nM; in the test with pTau (read-out: pTau), 1800 nM.
Take `O=C(Nc1cncc(-c2ccc(F)cc2F)c1)c1ccnc(NC(=O)C2CC2)c1` [Example 114, 2-(cyclopropanecarboxamido)-N-(5-(2,4-difluorophenyl)pyridin-3-yl)isonicotinamide]: the IC50 is 1.6 nM on GSK3β (setting [1]), 1.3 nM on GSK3α (setting [2]) and 990 nM in the test on pTau (read-out: pTau).
For `O=C(Nc1cncc2ccccc12)c1ccnc(NC(=O)C2CCCC2)c1` [Example 228, 2-(Cyclopentanecarboxamido)-N-(isoquinolin-4-yl)isonicotinamide], the figures for the IC50 on GSK3β (setting [1]), on GSK3α (setting [2]) and with pTau (read-out: pTau) were 1.6 nM, 1.1 nM and 130 nM, respectively.
On to `O=C(Nc1cnccc1-c1ccccc1)c1ccnc(NC(=O)[C@H]2C[C@H](O)C2)c1` [Example 219, 2-((1,3-Trans)-3-hydroxycyclobutanecarboxamido)-N-(4-phenylpyridin-3-yl)isonicotinamide], for which the IC50 came to 17 nM on GSK3β (setting [1]), 6.4 nM at GSK3α (setting [2]) and 450 nM in the test with pTau (read-out: pTau).
Turning to `O=C(Nc1cnccc1-c1ccc(C(F)(F)F)cc1F)c1ccnc(NC(=O)C2CC2)c1` [Example 82, 2-(Cyclopropanecarboxamido)-N-(4-(2-fluoro-4-(trifluoromethyl)phenyl)pyridine-3-yl)isonicotinamide], the IC50 was determined as 9.6 nM on GSK3β (setting [1]), 4 nM at GSK3α (setting [2]) and 200 nM with pTau (read-out: pTau).
